Assay [1] concerns Normal Human foreskin fibroblasts (HFF). As to the kind of experiment: Methylene Blue Growth Inhibition Assay, HFF. Format: cell-based. The following applies: 72 h, Cell Line HFF, 3 days, read-out: MeB IC50. In a few lines:
(§1)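 Methylene blue dye retained by cells after a 3-day, 37° C compound incubation in DMEM/10% FBS (0.3% DMSO) served as the biomass readout at 620 nm. IC50 values were interpolated by nonlinear regression against vehicle wells.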

For assay [2], the target named is T1, PLK1 kinase domain (Homo sapiens, UniProt P53350).
T1 construct: made in house; host or cells: baculovirus-infected T. ni insect cells
Nature of the assay: Assay for Inhibition of PLK1 (SPA enzyme activity). Format: biochemical. The settings on record: 2 μM ATP, read-out: Ave pIC50 PLK Enzyme Inhibition (converted).

For assay [3], the system named is colon (HCT116) tumor cell line. As to the kind of experiment: Methylene Blue Growth Inhibition Assay, HCT116. The class given is cell-based. The settings on record: Homo sapiens, HCT-116, 72 h; Cell Line HCT116, 3 days; read-out: MeB IC50. Put shortly: (§2)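 Growth inhibition is measured as methylene blue-stained biomass (OD 620 nm) after 3 days of compound treatment, relative to vehicle controls. Cells grow in high-glucose DMEM with 10% FBS and 0.3% final DMSO; IC50 comes from nonlinear regression.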

Assay [4] has as its system prostate (PC3) tumor cell line. As to the kind of experiment: Methylene Blue Growth Inhibition Assay, PC3. Format: cell-based. The following applies: Homo sapiens, 72 h; Cell Line PC3, 3 days; read-out: MeB IC50. In a few lines: as §2
The test system of assay [5] is breast tumor (MCF7) cell line. Nature of the assay: Methylene Blue Growth Inhibition Assay, MCF7. Format: cell-based. The following applies: Homo sapiens, 72 h; Cell Line MCF7, 3 days; read-out: MeB IC50. Put shortly:
as §2

In assay [6] the test system is lung (H460) tumor cell line. Nature of the assay: Methylene Blue Growth Inhibition Assay, H460. Format: cell-based. The settings on record: Homo sapiens, NCI-H460, 72 h; Cell Line H460, 3 days; read-out: MeB IC50. Put shortly:
as §1

Assay [7] has as its system colon (RKO) tumor cell line. Nature of the assay: Methylene Blue Growth Inhibition Assay, RKO. The class given is cell-based. The following applies: Homo sapiens, 72 h, 3 days, read-out: MeB IC50. In a few lines:
as §1

The structures appear in SMILES notation. Structures can show the parent of a compound that is named as a salt.

T1 sequence (P53350 21-346): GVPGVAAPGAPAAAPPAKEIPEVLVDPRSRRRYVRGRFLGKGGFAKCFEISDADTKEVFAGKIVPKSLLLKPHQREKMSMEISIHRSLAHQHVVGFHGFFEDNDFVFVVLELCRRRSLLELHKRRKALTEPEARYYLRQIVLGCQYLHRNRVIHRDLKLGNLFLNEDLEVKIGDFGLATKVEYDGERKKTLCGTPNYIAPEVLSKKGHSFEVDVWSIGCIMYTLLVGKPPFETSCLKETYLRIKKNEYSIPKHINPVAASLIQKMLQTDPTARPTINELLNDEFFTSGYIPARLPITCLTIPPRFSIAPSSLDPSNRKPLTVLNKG

Turning to `NC(=O)c1sc(-n2cnc3cc(C(=O)NCCN4CCNC4=O)ccc32)cc1OCc1ccccc1C(F)(F)F` [Example 156, 1-(5-(Aminocarbonyl)-4-{[2-(trifluoromethyl)benzyl]oxy}thien-2-yl)-N-[2-(2-oXoimidazolidin-1-yl)ethyl]-1H-benzimidazole-5-carboxamide], the IC50 was > 10 µM in assay [1]; < 100 nM in assay [2]; > 10 µM in assay [3]; > 10 µM in assay [4]; > 10 µM in assay [5]; > 10 µM in assay [6]. The IC50 in assay [7] was > 10 µM.

Take `COc1cc2ncn(-c3cc(OCc4cccc(N)c4)c(C(N)=O)s3)c2cc1OC` [Example 96, 3-[(3-Aminobenzyl)oxy]-5-(5,6-dimethoxy-1H-benzimidazol-1-yl)thiophene-2-carboxamide]: the IC50 in assay [1] was > 10 µM; in assay [2], < 100 nM; in assay [3] it was 1 to 10 µM; in assay [4], > 10 µM; in assay [5] it was 1 to 10 µM; in assay [6], 1 to 10 µM. Further, the IC50 in assay [7] fell in the range of 1 to 10 µM.

Take `COc1cc2ncn(-c3cc(OCc4ccccc4C#N)c(C(N)=O)s3)c2cc1OC` [Example 95, 3-[(2-Cyanobenzyl)oxy]-5-(5,6-dimethoxy-1H-benzimidazol-1-yl)thiophene-2-carboxamide]: the IC50 is > 10 µM in assay [1]; < 100 nM in assay [2]; 1 to 10 µM in assay [3]; > 10 µM in assay [4]; 1 to 10 µM in assay [5]; 1 to 10 µM in assay [6]. Also, the IC50 in assay [7] lay within 1 to 10 µM.

With `COc1cc2ncn(-c3cc(OCc4ccccc4C(F)(F)F)c(C(N)=S)s3)c2cc1OC` [Example 145], the IC50 is > 10 µM in assay [1]; < 100 nM in assay [2]; > 10 µM in assay [3]; > 10 µM in assay [4]; > 10 µM in assay [5]; > 10 µM in assay [6]. In assay [7], the IC50 is > 10 µM.

On to `COc1cc2ncn(-c3cc(OCc4ccccc4C(C)=O)c(C(N)=O)s3)c2cc1OC` [Example 105, 3-[(2-Acetylbenzyl)oxy]-5-(5,6-dimethoxy-1H-benzimidazol-1-yl)thiophene-2-carboxamide], for which the IC50 in assay [1] is > 10 µM; in assay [2] it was < 100 nM; in assay [3], 1 to 10 µM; in assay [4], > 10 µM; in assay [5], 1 to 10 µM; in assay [6], 1 to 10 µM. Also, the IC50 in assay [7] fell in the range of 1 to 10 µM.

Take `COc1cc2ncn(-c3cc(OCc4ccccc4Br)c(C(N)=O)s3)c2cc1OC` [Example 65, 3-[(2-Bromobenzyl)oxy]-5-(5,6-dimethoxy-1H-benzimidazol-1-yl)thiophene-2-carboxamide]: the IC50 was > 10 µM in assay [1]; < 100 nM in assay [2]; < 1 µM in assay [3]; > 10 µM in assay [4]; < 1 µM in assay [5]; < 1 µM in assay [6]. For the same compound, the IC50 in assay [7] was < 1 µM.

`NC(=O)c1sc(-n2cnc3ccccc32)cc1C#Cc1ccccc1` [Example 129, 5-(1H-Benzimidazol-1-yl)-3-(phenylethynyl)thiophene-2-carboxamide]: the IC50 was > 10 µM in assay [1]; 100 to 10000 nM in assay [2]; > 10 µM in assay [3]; > 10 µM in assay [4]; > 10 µM in assay [5]; > 10 µM in assay [6]. In addition, in assay [7], the IC50 is > 10 µM.

Turning to `NC(=O)c1sc(-n2cnc3cc4c(cc32)OCCCO4)cc1OCc1ccccc1C(F)(F)F` [Example 89], the IC50 in assay [1] was > 10 µM; in assay [2] it was < 100 nM; in assay [3], 1 to 10 µM; in assay [4], > 10 µM; in assay [5], 1 to 10 µM; in assay [6] it was 1 to 10 µM. Besides, the IC50 in assay [7] lay within 1 to 10 µM.

As to `C=Cc1ccccc1COc1cc(-n2cnc3cc(OC)c(OC)cc32)sc1C(N)=O` [Example 103, 5-(5,6-Dimethoxy-1H-benzimidazol-1-yl)-3-[(2-vinylbenzyl)oxy]thiophene-2-carboxamide], the IC50 in assay [1] is > 10 µM; in assay [2], < 100 nM; in assay [3], 1 to 10 µM; in assay [4], > 10 µM; in assay [5], 1 to 10 µM; in assay [6] it was 1 to 10 µM. In assay [7], the IC50 fell in the range of 1 to 10 µM.

With `COc1cc2ncn(-c3cc(OCc4ccccc4-c4ccccc4)c(C(N)=O)s3)c2cc1OC` [Example 93, 3-(1,1′-Biphenyl-2-ylmethoxy)-5-(5,6-dimethoxy-1H-benzimidazol-1-yl)thiophene-2-carboxamide], the IC50 in assay [1] was > 10 µM; in assay [2] it was 100 to 10000 nM; in assay [3], > 10 µM; in assay [4] it was > 10 µM; in assay [5], > 10 µM; in assay [6] it was > 10 µM. The IC50 in assay [7] is > 10 µM.

In the case of `NC(=O)c1sc(-n2cnc3ccc(OCCN4CCCC4)cc32)cc1OCc1ccccc1C(F)(F)F` [Example 139, 5-[6-(2-Pyrrolidin-1-ylethoxy)-1H-benzimidazol-1-yl]-3-{[2-(trifluoromethyl)benzyl]oxy}thiophene-2-carboxamide], the IC50 is > 10 µM in assay [1]; < 100 nM in assay [2]; 1 to 10 µM in assay [3]; 1 to 10 µM in assay [4]; 1 to 10 µM in assay [5]; 1 to 10 µM in assay [6]. In assay [7], the IC50 is < 1 µM.

As for `COc1cc2ncn(-c3cc(O)c(C(N)=O)s3)c2cc1OC` [Example 152, 5-(5,6-Dimethoxy-1H-benzimidazol-1-yl)-3-hydroxythiophene-2-carboxamide trifluoroacetate], the IC50 in assay [1] was > 10 µM; in assay [2], 100 to 10000 nM; in assay [3] it was > 10 µM; in assay [4], > 10 µM; in assay [5] it was > 10 µM; in assay [6], > 10 µM. In assay [7], the IC50 was > 10 µM.

`COc1cc2ncn(-c3cc(OCc4cccc(I)c4)c(C(N)=O)s3)c2cc1OC` [Example 94]: the IC50 is 1 to 10 µM in assay [1]; < 100 nM in assay [2]; 1 to 10 µM in assay [3]; 1 to 10 µM in assay [4]; 1 to 10 µM in assay [5]; 1 to 10 µM in assay [6]. Moreover, the IC50 in assay [7] was in the range of 1 to 10 µM.

`O=C(O)c1sc(-n2cnc3cc(Cl)c(Cl)cc32)cc1OCc1ccsc1` [Example 79]: the IC50 was > 10 µM in assay [1]; < 100 nM in assay [2]; > 10 µM in assay [3]; > 10 µM in assay [4]; > 10 µM in assay [5]; > 10 µM in assay [6]. Further, the IC50 in assay [7] is > 10 µM.

As to `NC(=O)c1sc(-n2cnc3ccc(Br)cc32)cc1OCc1ccccc1C(F)(F)F` [Example 62, 5-(6-Bromo-1H-benzimidazol-1-yl)-3-{[2-(trifluoromethyl)benzyl]-oxy}thiophene-2-carboxamide], the IC50 in assay [1] was 1 to 10 µM; in assay [2], < 100 nM; in assay [3], < 1 µM; in assay [4], > 10 µM; in assay [5], < 1 µM; in assay [6], < 1 µM. Also, in assay [7], the IC50 is < 1 µM.

On to `O=C(O)c1sc(-n2cnc3cc(Cl)c(Cl)cc32)cc1OCc1ccoc1` [Example 77, 5-(5,6-Dichloro-1H-benzimidazol-1-yl)-3-(3-furylmethoxy)thiophene-2-carboxylic acid], for which the IC50 in assay [1] was > 10 µM; in assay [2], < 100 nM; in assay [3] it was > 10 µM; in assay [4], > 10 µM; in assay [5], > 10 µM; in assay [6], > 10 µM. In addition, in assay [7], the IC50 is > 10 µM.

On to `COC(=O)c1sc(-n2cnc3cc(OC)c(OC)cc32)cc1OS(=O)(=O)C(F)(F)F` [Example 150, Methyl 5-(5,6-dimethoxy-1H-benzimidazol-1-yl)-3-{[(trifluoromethyl)sulfonyl]oxy}thiophene-2-carboxylate], for which the IC50 in assay [1] is > 10 µM; in assay [2], 100 to 10000 nM; in assay [3], > 10 µM; in assay [4], > 10 µM; in assay [5], > 10 µM; in assay [6] it was > 10 µM. In addition, the IC50 in assay [7] is > 10 µM.

With `CS(=O)(=O)CCNC(=O)c1ccc2c(c1)ncn2-c1cc(OCc2ccccc2C(F)(F)F)c(C(N)=O)s1` [Example 155, 1-(5-(Aminocarbonyl)-4-{[2-(trifluoromethyl)benzyl]oxy}thien-2-yl)-N-[2-(methylsulfonyl)ethyl]-1H-benzimidazole-5-carboxamide], the IC50 in assay [1] is > 10 µM; in assay [2], < 100 nM; in assay [3] it was > 10 µM; in assay [4], > 10 µM; in assay [5], > 10 µM; in assay [6], > 10 µM. Besides, the IC50 in assay [7] was > 10 µM.

The values are drawn from patent US20080269298A1, “Benzimidazol-1-YL-thiophene compounds for the treatment of cancer” (priority 2002, published 2008).
